Reference: patent US20030109468A1, “Novel compounds that enhance dimerization of the subunits of HIV-1 reverse transcriptase having mutations associated with resistance to nonnucleoside reverse transcriptase inhibitors” (priority 2001, published 2003)
Entries after “also recorded” stand apart in the source; their conditions may differ. Like-named read-outs stand apart in the source and are kept apart here.

Key:
p66-His and GST-p51 = target: T1, p66-His and GST-p51 (Human immunodeficiency virus type 1 group M subtype B, UniProt P04585); type: binding, HIV-1
T1 construct: p66 corresponds to codons 1-560 and p51 corresponds to codons 1-440 in the RT gene; made in house; host or cells: E. coli M15 (p66-His) and BL21 (GST-p51), unpurified lysates
Experimental: Plasmids expressing wild-type and p66 mutants with a histidine tag at the C-terminus (p66-His) were constructed by cloning the p66 coding region into the SphI -BglII site of pQE-70 (Qiagen, Chatsworth, Calif.). […] Glutathione S-transferase tagged p51 (GST-p51) was prepared by subcloning the BamHI-SalI fragment from p51HXGADNOT into pGEX5X-3 (Amersham Pharmacia). Cells were induced and then lysed by the addition of 1 mg/ml of lysozyme to 1 ml of lysis buffer [50 mM sodium phosphate buffer (pH 7.8), 500 mM NaCl, 0.5% Nonidet P-40, 5 mM DTT, and 1 μg/ml each of pepstatin A, aprotinin and leupeptin] and clarified. Lysates were combined and incubated for 16 hrs at 4° C. The heterodimer was captured on Glutathione Sepharose 4B beads and unbound subunits were removed by washing with lysis buffer. Heterodimer bound to beads were resolved by SDS/PAGE. For quantification of RT activity, dimers were eluted from beads with 10 mM reduced glutathione in 50 mM Tris (pH 8.0). Samples were assayed for DNA polymerase activity on homopolymeric template-primers for various times, and the activity was determined from the initial slope of the linear phase of the time course.

[1] = target: T2, lexA87-66 and Gal4AD-51 (p66 and p51 subunits of the HIV-1 RT) (Human immunodeficiency virus type 1 group M subtype B, UniProt P12497); type: cell-based
T2 construct: p66 corresponds to codons 1-560 and p51 corresponds to codons 1-440 in the RT gene; expressed in transfected cells; host or cells: Saccharomyces cerevisiae CTY10-5d
Experimental: Transformation of yeast and the qualitative β-galactosidase (β-gal) colony lift assay were as published (19). Quantification of protein-protein interactions was determined using the β-gal liquid assay performed on permeabilized yeast grown from three independent transformants using orthonitrophenyl-β-D-galactopyranoside as substrate (19).
(§1) CTY10-5d transformed constructs expressing p66 bait and p51 prey fusions were grown overnight to stationary phase in synthetic complete medium without histidine and leucine and containing 2% glucose (SC-His-Leu). […] Yeast were grown with aeration at 30° C. to OD600=0.5. The equivalent of 1 OD600 unit was pelleted for each treatment and subjected to a quantitative _-gal liquid assay.
To test the effects of NNRTIs on the association of the RT polypeptides we used a yeast genetic assay that measures RT heterodimerization (22). In this assay yeast expressing the p66 subunit of the HIV-1 RT fused to the C-terminus of lexa 87 (lexA87-66) and the p51 subunit fused to the Gal4AD (Gal4AD-51) constitutively interact, resulting in the activation of the expression from an integrated Lac Z reporter gene. To test for the effects of the NNRTIs on this interaction, 10 drugs representing 7 different NNRTI classes were added to the culture medium during growth of the yeast and β-gal levels were determined.

p66/p51 heterodimer = target: T3, p66/p51 heterodimer (Human immunodeficiency virus type 1 group M subtype B, UniProt P12497); conditions: cited from earlier work
T3 construct: The HIV-1 RT is an asymmetric dimer consisting of p66 and p51 polypeptides

HIV-1 = conditions: cited from earlier work
HIV-1 RT = HIV-1 RT (Human immunodeficiency virus type 1 group M subtype B, UniProt P12497); type: biochemical; conditions: exogenous RT assay, results not shown
RT heterodimer = target: T4, RT heterodimer (Human immunodeficiency virus type 1 group M subtype B, UniProt P12497); conditions: cited from earlier work
T4 construct: The HIV-1 RT is an asymmetric dimer consisting of p66 and p51 polypeptides

[2] = target: T5, HIV-1 RT p66 bait and p51 prey fusions with the L234A change (Human immunodeficiency virus type 1 group M subtype B, UniProt P04585, L821A); type: cell-based; conditions: L234A in one or both subunits
T5 construct: p66 corresponds to codons 1-560 and p51 corresponds to codons 1-440 in the RT gene; expressed in transfected cells; host or cells: Saccharomyces cerevisiae CTY10-5d
Experimental: as §1

[3] = target: T6, HIV-1 RT p66 bait and p51 prey fusions with the W401A change (Human immunodeficiency virus type 1 group M subtype B, UniProt P12497, W988A); type: cell-based; conditions: W401A in one or both subunits
T6 construct: p66 corresponds to codons 1-560 and p51 corresponds to codons 1-440 in the RT gene; expressed in transfected cells; host or cells: Saccharomyces cerevisiae CTY10-5d
Experimental: as §1

[4] = target: T7, lexA87-66W401A and Gal4AD-HA-51W401A (Human immunodeficiency virus type 1 group M subtype B, UniProt P12497, W988A); experiment: Coimmunoprecipitation of p66 and p51 in yeast lysates, W401A mutant; type: cell-based, HIV-1
T7 construct: p66 corresponds to codons 1-560 and p51 corresponds to codons 1-440 in the RT gene; expressed in transfected cells; host or cells: Saccharomyces cerevisiae CTY10-5d
From the text: […]; Preparation of protein extracts and immunoprecipitation were as previously described (30) except for the use of anti-HA.11 monoclonal antibodies (clone 16B12; Covance, Princeton, N.J.) and Protein G-PLUS agarose beads (Santa Cruz Biotechnology; Santa Cruz, Calif.). Samples were resolved by SDS-PAGE. The lexA87-66 fusion protein was probed using monoclonal antibodies 7E5 which specifically detects p66 (31).
To directly test for induced heterodimerization by NNRTIs we subjected lysates from yeast expressing dimerization defective mutants to coimmunoprecipitation. […]. Hemagglutinin (HA) antibodies were used to immunoprecipitate the p51 prey and the presence of any bound p66 bait was then detected using anti-p66 specific antibodies. For coimmunoprecipitation of the p66 bait fusions, samples were divided into two with one part processed without added NNRTI while the other was maintained in drug at the same concentration used during growth of yeast. […] […].

[5] = target: T8, lexA87-66L234A and Gal4AD-HA-51L234A (Human immunodeficiency virus type 1 group M subtype B, UniProt P04585, L821A); type: cell-based, HIV-1; conditions: yeast grown with efavirenz 1.6 μM or UC781 16 μM, compared to no drug
T8 construct: p66 corresponds to codons 1-560 and p51 corresponds to codons 1-440 in the RT gene; expressed in transfected cells; host or cells: Saccharomyces cerevisiae CTY10-5d
From the text: Samples were resolved by SDS-PAGE.
Hemagglutinin (HA) antibodies were used to immunoprecipitate the p51 prey and the presence of any bound p66 bait was then detected using anti-p66 specific antibodies. For coimmunoprecipitation of the p66 bait fusions, samples were divided into two with one part processed without added NNRTI while the other was maintained in drug at the same concentration used during growth of yeast.

[6] = target: p66W401A-His and GST-p51W401A (Human immunodeficiency virus type 1 group M subtype B, UniProt P12497, W988A); experiment: In vitro heterodimerization in bacterial lysates, W401A mutant
Experimental: The heterodimerization of bacterially expressed wild-type p66-His and GST-p51 (or mutants) was assessed in bacterial lysates as described previously (22). […] Lysates were washed 4 times with lysis buffer using a centricon-YM-50 filter device (Millipore Corporation, Bedford, Mass.) to remove unbound drug. 5 μg of the corresponding RT subunit was applied to the washed lysates (in 500 μl) and incubated for 1.5 hr at 40C. Heterodimers were captured onto beads (22), resolved by SDS/PAGE and detected using RT antibodies (monoclonal antibody 5B2) (31).

[7] = test system: moloney murine leukemia virus reverse transcriptase with elongation factor release factor 1 and other unrelated pairs; experiment: Y2H specificity control, unrelated protein-protein interaction pairs; type: cell-based
From the text: (§2) The specificity of the β-gal enhancement by NNRTIs was investigated. […].

lexA87 and Gal4AD = experiment: Y2H specificity control, empty vectors pSH21 and pGADNOT; type: cell-based; conditions: serial dilutions, even in the presence of 15 μM of drug
From the text: as §2

[8] = target: lexA87-66Y181C and wild type Gal4AD-51 (Human immunodeficiency virus type 1 group M subtype B, UniProt P12497, Y768C); type: cell-based, HIV-1; conditions: yeast grown in the presence of drug
Experimental: as §1

[9] = target: HIV-1 RT with Y181C mutation in the p66 subunit (Human immunodeficiency virus type 1 group M subtype B, UniProt P12497, Y768C); conditions: cited from earlier work
[10] = yeast expressing lexA87-66 and Gal4AD-51 grown with drug
[11] = bacterial lysates, overnight at 4° C.

Which “effect on heterodimerization in in vitro binding assays” value (p66-His and GST-p51; preliminary tests, data not shown) does the source give for “2′,5′-bis-O-(tert-butylidimethylsilyl) -3′-spiro-5″-4″-amino-1″,2″-oxothiole-2″,2″-dioxide)]-b-D- pentofuranosyl [TSAO]” here?
Its value is “reduce heterodimerization”.

What about the “inhibition of β-gal activity in the Y2H system” value ([1]; preliminary tests, data not shown, uptake by yeast not ruled in) of the same compound?
The value was “no inhibition of β-gal activity”.

What about the “destabilization of the p66/p51 heterodimer” value (p66/p51 heterodimer) of the same compound?
The value was “destabilization of the p66/p51 heterodimer; also recorded: destabilize the p66/p51 heterodimer”.

With `COc1ccc2c(c1)N(C(=O)OC(C)C)[C@@H](CSC)C(=S)N2` [HBY 097, (S)-4-isopropoxycarbonyl-6-methoxy-3-(methylthiomethyl)-3,4-dihydroquinoxaline-2(1H)-thione] as the compound, how does the “enhancement of β-gal activity, in words / relative potency” value [1, 10] read?
Its value is “most potent”.

What about the “inhibition of HIV-1 replication in vitro” value (HIV-1) of the same compound?
The value was “extremely potent inhibitors”.

Which “destabilization of the p66/p51 heterodimer” value (p66/p51 heterodimer) does the source give for `CCn1c(=O)c(C)cn([C@@H]2O[C@H](CO[Si](C)(C)C(C)(C)C)C3(OS(=O)(=O)C=C3N)[C@H]2O[Si](C)(C)C(C)(C)C)c1=O` (stereo partly drawn) [TSAOe^3T] here?
The value was “more modest destabilization only detectable in the presence of denaturants”.

With `Cc1occc1C(=S)Nc1ccc(Cl)c(/C=N/OC(C)(C)C)c1` [UC10] as the compound, how does the “enhancement of dimerization of GST-p51 and p66-His in vitro, in words” value (p66-His and GST-p51; [11]) read?
Its value is “poor dimerization inducers”.

With `CC(C)OC(=O)c1cc(NC(=S)OC(C)C)ccc1Cl` [UC38] as the compound, how does the “concentration of drug that mediates a 5-fold increase in β-gal activity, rank” value ([1]; Y2H assay, results not shown) read?
Its value is “least active”.

And the “RT inhibitory activity (50% inhibitory concentration), rank” value (HIV-1 RT)?
Its value is “least active”.

Which “enhancement of dimerization of GST-p51 and p66-His in vitro, in words” value (p66-His and GST-p51; [11]) does the source give for `CC(C)=CCOc1cc(NC(=S)c2ccoc2C)ccc1Cl` [UC781, N-[4-chloro-3-(3-methyl-2-butenyloxy)phenyl]-2-methyl-3-furancarbothioamide] here?
The value was “poor dimerization inducers”.

And the “binding to the RT heterodimer” value (RT heterodimer)?
Its value is “bind very tightly”.

What about the “dissociation rates (Koff)” value (RT heterodimer) of the same compound?
Its value is “very slow dissociation rates”.

And the “enhancement of β-gal activity, in words / relative potency” value [1, 10]?
The value was “second most potent drug”.

What about the “enhancement of β-gal activity, L234A mutant, in words” value [2] of the same compound?
Its value is “no enhancement”.

And the “enhancement of β-gal activity, W401A mutant, in words” value [3]?
The value was “could also enhance the β-gal activity”.

What about the “p66 bait coimmunoprecipitated with p51 prey, W401A” value ([4]; yeast grown with efavirenz 1.6 μM or UC781 16 μM, compared to no drug) of the same compound?
Its value is “heterodimer formation”.

And the “p66 bait coimmunoprecipitated with p51 prey, L234A” value [5]?
The value was “not for the L234A mutant”.

What about the “inhibition of HIV-1 replication in vitro” value (HIV-1) of the same compound?
Its value is “extremely potent inhibitors”.

What does the source list for `CC(C)Nc1cccnc1N1CCN(C(=O)c2cc3cc(NS(C)(=O)=O)ccc3[nH]2)CC1` [delavirdine, piperazine, 1-[3-[(1-methyl-ethyl)amino]-2-pyridinyl]-4-[[5-[(methysulfonyl)amino]-1H-indol-2-yl]carbonyl]-, monomethanesulfonate]?
enhancement of dimerization of GST-p51 and p66-His in vitro, in words (p66-His and GST-p51): inactive in vitro; enhancement of β-gal activity, in words / relative potency [1]: devoid of P-gal enhancing activity

Which “molar excess of drug giving a significant increase in dimer formation, W401A” value [6] does the source give for `O=C1Nc2ccc(Cl)cc2[C@@](C#CC2CC2)(C(F)(F)F)O1` [efavirenz, (S)6-chloro-4(cyclopropylethynyl)-1,4-dihydro-4-(trifluoromethyl)-2H-3,1-benzoxazin-2-one] here?
The value was 10 fold molar excess.

What about the “binding to the RT heterodimer” value (RT heterodimer) of the same compound?
The value was “bind very tightly”.

What about the “effect on β-gal activity of unrelated protein-protein interaction pairs” value [7] of the same compound?
The value was “no enhancement or inhibition of β-gal activity”.

What about the “enhancement of β-gal activity, W401A mutant, in words” value [3] of the same compound?
The value was “dramatic increase in β-gal activity”.

What about the “increase in β-gal activity, empty vectors” value (lexA87 and Gal4AD) of the same compound?
The value was “no increase in β-gal activity”.

And the “heterodimer in lysates of yeast grown without drug, drug added during coimmunoprecipitation, W401A” value [4]?
The value was “significantly more heterodimer present”.

And the “p66 bait coimmunoprecipitated with p51 prey, W401A” value [4]?
The value was “clear increase”.

And the “β-gal enhancement with Y181C in the p66 bait” value [8]?
Its value is “significant level of β-gal enhancement was still retained”.

With `Cc1ccnc2c1NC(=O)c1cccnc1N2C1CC1` [nevirapine, 11-cyclopropyl-5,11,-dihydro-4-methyl-6H-dipyrido[3,2-b:2′3′-][1,4] diazepin-6-one] as the compound, how does the “increase in resistance conferred by Y181C” value [9] read?
Its value is greater than 100 fold.

What about the “β-gal enhancement with Y181C in the p66 bait” value [8] of the same compound?
Its value is “totally negated the enhancement effect”.
